Source: US20150374646A1, “TREATMENT OF CANCER AND OTHER CONDITIONS USING A TRANSCRIPTION FACTOR MODULATOR” (C & C BIOPHARMA, LLC, priority 2013, published 2015)
pIC50: −log10 of the molar value.

Experiments:
[1] = test system: CCRF-CEM; test: Leukemia cell growth inhibition, CellTiter-Glo (Example 1); type: cell-based; settings: Homo sapiens, ALL (T-cell), 72 hours
Method: (§2) Various human leukemia cells were grown to the logarithmic growth phase and seeded into 24-well plates. […] Treated cells were further incubated for 72 hours and then were examined for cell proliferation. Cell proliferation was determined using the CellTiter-Glo Luminescence Cell Viability assay (Promega Corporation, Madison, Wis.) according to the manufacturer's protocol. The calculated inhibition rate was determined with the following formula: Inhibition rate (%)=(1−Luminescence of experimental group/Luminescence of control group)×100. IC50 is the calculated concentration of a compound needed to inhibit half of the maximum cell growth (equivalent to cell growth in control group) based on the corresponding dose-response curve under the described experimental conditions.

[2] = test system: HCT116; test: Cancer cell line growth inhibition, CellTiter-Glo (Example 3); type: cell-based; settings: Homo sapiens, HCT-116, Colon, 72 hours
Method: (§1) YT30 was tested for growth inhibition against 67 human cancer cell lines derived from diverse tissues including the National Cancer Institute human cancer cell lines (NCI-60). […] Cells in different wells were treated with various concentrations of YT30, YT86, YT88, or YT128. […] Cell viabilities were determined by the CellTiter-Glo Luminescence Cell Viability assay kit (Promega Corporation, Madison, Wis.) according to manufacturer's protocol.

[3] = test system: SF-295; test: as above; type: cell-based; settings: Homo sapiens, CNS, 72 hours, read-out: IC50
Method: as §1

[4] = test system: HL60; test: as above; type: cell-based; settings: Homo sapiens, HL-60, Leukemia, 72 hours, read-out: IC50
Method: as §1

[5] = test system: HeLa; test: as above; type: cell-based; settings: Homo sapiens, Cervical, 72 hours, read-out: IC50
Method: as §1

[6] = test system: OVCAR-8; test: as above; type: cell-based; settings: Homo sapiens, Ovary, 72 hours
Method: as §1

[7] = test system: HepG2; test: as above; type: cell-based; settings: Homo sapiens, Liver, 72 hours
Method: as §1

[8] = test system: Caski; test: as above; type: cell-based; settings: Homo sapiens, Ca-Ski, Cervical, 72 hours, read-out: IC50
Method: as §1

[9] = test system: NCI-H226; test: as above; type: cell-based; settings: Homo sapiens, NSCLC, 72 hours
Method: as §1

[10] = test system: MDA-MB-435; test: as above; type: cell-based; settings: Homo sapiens, Melanoma, 72 hours, read-out: IC50
Method: as §1

[11] = test system: NCI-H23; test: as above; type: cell-based; settings: Homo sapiens, NSCLC, 72 hours
Method: as §1

[12] = test system: RPMI-8226; test: as above; type: cell-based; settings: Homo sapiens, Leukemia, 72 hours
Method: as §1

[13] = test system: ACHN; test: as above; type: cell-based; settings: Homo sapiens, Renal, 72 hours
Method: as §1

[14] = test system: SK-OV-3; test: as above; type: cell-based; settings: Homo sapiens, Ovary, 72 hours
Method: as §1

[15] = test system: OVCAR-3; test: as above; type: cell-based; settings: Homo sapiens, Ovary, 72 hours, read-out: IC50
Method: as §1

[16] = test system: SN12C; test: as above; type: cell-based; settings: Homo sapiens, Renal, 72 hours, read-out: IC50
Method: as §1

[17] = test system: NCI-H460; test: as above; type: cell-based; settings: Homo sapiens, NSCLC, 72 hours
Method: as §1

[18] = test system: SEM cells; test: as above; type: cell-based; settings: Homo sapiens, Leukemia, 72 hours
Method: as §1

[19] = test system: UO-31; test: as above; type: cell-based; settings: Homo sapiens, Renal, 72 hours, read-out: IC50
Method: as §1

[20] = test system: TK-10; test: as above; type: cell-based; settings: Homo sapiens, Renal, 72 hours, read-out: IC50
Method: as §1

[21] = test system: PC-3; test: as above; type: cell-based; settings: Homo sapiens, Prostate, 72 hours
Method: as §1

[22] = test system: MALME-3M; test: as above; type: cell-based; settings: Homo sapiens, Melanoma, 72 hours
Method: as §1

[23] = test system: MDA-MB231; test: as above; type: cell-based; settings: Homo sapiens, MDA-MB-231; Breast, MDA-MB231; 72 hours; read-out: IC50
Method: as §1

[24] = test system: MOLT-4; test: as above; type: cell-based; settings: Homo sapiens, Leukemia, 72 hours, read-out: IC50
Method: as §1

[25] = test system: A498; test: as above; type: cell-based; settings: Homo sapiens, Renal, 72 hours, read-out: IC50
Method: as §1

[26] = test system: SK-MEL-28; test: as above; type: cell-based; settings: Homo sapiens, Melanoma, 72 hours
Method: as §1

[27] = test system: SK-MEL-5; test: as above; type: cell-based; settings: Homo sapiens, Melanoma, 72 hours
Method: as §1

[28] = test system: OVCAR-5; test: as above; type: cell-based; settings: Homo sapiens, Ovary, 72 hours, read-out: IC50
Method: as §1

[29] = test system: SW-620; test: as above; type: cell-based; settings: Homo sapiens, Colon, 72 hours
Method: as §1

[30] = test system: K562; test: as above; type: cell-based; settings: Homo sapiens, Leukemia, 72 hours, read-out: IC50
Method: as §1

[31] = test system: UACC-62; test: as above; type: cell-based; settings: Homo sapiens, Melanoma, 72 hours
Method: as §1

[32] = test system: CCRF-CEM; test: as above; type: cell-based; settings: Homo sapiens, Leukemia, 72 hours, read-out: IC50
Method: as §1

[33] = test system: UACC-257; test: as above; type: cell-based; settings: Homo sapiens, Melanoma, 72 hours
Method: as §1

[34] = test system: EKVX; test: as above; type: cell-based; settings: Homo sapiens, NSCLC, 72 hours
Method: as §1

[35] = test system: A549; test: as above; type: cell-based; settings: Homo sapiens, NSCLC, 72 hours, read-out: IC50
Method: as §1

[36] = test system: Colo 205; test: as above; type: cell-based; settings: Homo sapiens, Colon, 72 hours
Method: as §1

[37] = test system: M14; test: as above; type: cell-based; settings: Homo sapiens, Melanoma, 72 hours
Method: as §1

[38] = test system: MCF7; test: as above; type: cell-based; settings: Homo sapiens, Breast, 72 hours, read-out: IC50
Method: as §1

[39] = test system: CAK1; test: as above; type: cell-based; settings: Homo sapiens, Renal, 72 hours
Method: as §1

[40] = test system: RCH-ACV; test: Leukemia cell growth inhibition, CellTiter-Glo (Example 1); type: cell-based; settings: Homo sapiens, ALL (B-cell), 72 hours
Method: as §2

[41] = test system: RS4;11; test: as above; type: cell-based; settings: Homo sapiens; RS4;11, ALL (B-cell); 72 hours
Method: as §2

[42] = test system: Nalm-6; test: as above; type: cell-based, human
Method: as §2

## Nc1ccccc1NC(=O)CCCCCC(=O)Nc1cccc(Br)c1 [YT30]
[1]
  pIC50: 5.82
[2]
  pIC50: 4.89
[3]
  pIC50: 4.99
[4]
  pIC50: 5.98
[5]
  pIC50: 5.37
[6]
  pIC50: 5.17
[7]
  pIC50: 4.90
[8]
  pIC50: 5.30
[9]
  pIC50: 4.90
[10]
  pIC50: 4.98
[11]
  pIC50: 4.96
[12]
  pIC50: 5.70
[13]
  pIC50: 4.90
[14]
  pIC50: 5.09
[15]
  pIC50: 5.04
[16]
  pIC50: 5.02
[17]
  pIC50: 5.27
[18]
  pIC50: 5.94
[19]
  pIC50: 4.97
[20]
  pIC50: 4.79
[21]
  pIC50: 5.01
[22]
  pIC50: 5.23
[23]
  pIC50: 4.85
[24]
  pIC50: 5.95
[25]
  pIC50: 4.86
[26]
  pIC50: 5.22
[27]
  pIC50: 5.41
[28]
  pIC50: 4.92
[29]
  pIC50: 4.96
[30]
  pIC50: 5.74
[31]
  pIC50: 5.28
[32]
  pIC50: 5.82
[33]
  pIC50: 5.21
[34]
  pIC50: 5.34
[35]
  pIC50: 5.47
[36]
  pIC50: 4.84
[37]
  pIC50: 5.21
[38]
  pIC50: 5.16
[39]
  pIC50: 4.93
[40]
  pIC50: 6.10
[41]
  pIC50: 5.98
[42]; Homo sapiens, NALM-6, ALL (B-cell), 72 hours
  pIC50: 5.63
[42]; Nalm-6 cells, 4 μM
  Growth inhibition (FIG. 1): significantly inhibit cell growth
